# From patent US12162888B2, “Carboxamides as ubiquitin-specific protease inhibitors” (Valo Early Discovery, Inc., priority 2018, dated 2024)
# Molecular target: T1, USP25 (USP25-His6, Boston Biochem E-546) (Homo sapiens, UniProt Q9UHP3)
# T1 construct: His6 (C); purchased Boston Biochem E-546
# T1 sequence (Q9UHP3 1-1055): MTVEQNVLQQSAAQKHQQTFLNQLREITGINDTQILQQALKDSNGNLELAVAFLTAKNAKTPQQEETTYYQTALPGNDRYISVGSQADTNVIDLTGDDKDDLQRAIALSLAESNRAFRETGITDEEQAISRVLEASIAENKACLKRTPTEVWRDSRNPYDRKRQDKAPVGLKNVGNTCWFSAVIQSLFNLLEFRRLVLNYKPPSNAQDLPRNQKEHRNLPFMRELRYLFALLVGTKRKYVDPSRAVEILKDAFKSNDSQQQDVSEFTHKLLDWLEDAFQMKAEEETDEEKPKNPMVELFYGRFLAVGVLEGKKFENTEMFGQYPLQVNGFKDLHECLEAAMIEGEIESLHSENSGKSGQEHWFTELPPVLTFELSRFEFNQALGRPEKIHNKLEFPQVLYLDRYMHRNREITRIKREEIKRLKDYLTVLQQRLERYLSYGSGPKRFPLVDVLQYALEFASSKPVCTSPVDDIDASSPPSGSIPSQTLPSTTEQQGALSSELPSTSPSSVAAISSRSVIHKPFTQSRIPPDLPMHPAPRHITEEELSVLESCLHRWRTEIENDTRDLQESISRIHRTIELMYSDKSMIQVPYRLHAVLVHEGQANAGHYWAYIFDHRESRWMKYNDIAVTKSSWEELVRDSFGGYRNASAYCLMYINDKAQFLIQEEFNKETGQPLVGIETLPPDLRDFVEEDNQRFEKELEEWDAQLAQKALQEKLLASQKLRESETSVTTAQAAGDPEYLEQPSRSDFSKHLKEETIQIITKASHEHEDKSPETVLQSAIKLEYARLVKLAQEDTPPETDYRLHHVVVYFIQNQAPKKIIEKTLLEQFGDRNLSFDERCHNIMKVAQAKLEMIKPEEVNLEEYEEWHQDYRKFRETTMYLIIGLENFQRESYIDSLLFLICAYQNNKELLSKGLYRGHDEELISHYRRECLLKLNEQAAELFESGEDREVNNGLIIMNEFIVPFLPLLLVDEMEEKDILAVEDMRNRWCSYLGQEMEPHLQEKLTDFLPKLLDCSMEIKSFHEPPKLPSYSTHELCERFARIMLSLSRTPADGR
# Assay: Ubiquitin-Rhodamine 110 Assay for USP25 Activity, Example A-3
# Type: biochemical
# Conditions: Ubiquitin-Rhodamine 110 assay, Example A-3; read-out: USP25 A-3 IC50 range
# In short: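 USP25-His6 ([…] final as stated) preincubated 30 min with compound (10-point, 25 μM to 1.3 nM), then Ub-Rh110 at 25 nM (<<Km) added in pH 8.0 Tris buffer with BME, BGG and Triton X-100. Reaction stopped after 45 min at room temperature with 10 mM citric acid; fluorescence read at 485/535 nm.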
row,SMILES,IC50
1,"Cc1ccc2c(N)c(C(=O)N[C@H]3COc4cc(N5CCNCC5)ccc4[C@H]3C)sc2n1 (single isomer, unassigned) [Example 11-15]",> 2 µM
2,"Cc1ccc2c(N)c(C(=O)N[C@H]3COc4cc(N5CCNCC5)ccc4[C@@H]3C)sc2n1 (single isomer, unassigned) [Example 11-16]",> 2 µM
3,"Cc1ccc2c(N)c(C(=O)N[C@H]3COc4cc(N5CCNCC5)ccc4[C@@H]3C)sc2n1 (single isomer, unassigned) [Example 11-17]",> 2 µM
4,"Cc1ccc2c(N)c(C(=O)N[C@@H]3COc4cc(N5CCNCC5)ccc4[C@@H]3C)sc2n1 (single isomer, unassigned) [Example 11-18]",0.2 to 2 µM
5,"Cc1cnc2c(N)c(C(=O)N[C@H]3CCc4cc(N5CCNCC5)ccc4C3)sc2n1 (single isomer, unassigned) [Example 11-19]",0.2 to 2 µM
6,"Cc1cnc2c(N)c(C(=O)N[C@@H]3CCc4cc(N5CCNCC5)ccc4C3)sc2n1 (single isomer, unassigned) [Example 11-20]",> 2 µM
7,"Cc1ccc2c(N)c(C(=O)N[C@H]3CCc4cc(N5CCNCC5)ccc4C3)sc2n1 (single isomer, unassigned) [Example 11-21]",> 2 µM
8,"Cc1ccc2c(N)c(C(=O)N[C@@H]3CCc4cc(N5CCNCC5)ccc4C3)sc2n1 (single isomer, unassigned) [Example 11-22]",0.2 to 2 µM
9,"CN[C@H]1CCN(c2ccc3c(c2)CC[C@H](NC(=O)c2sc4nc(C)cnc4c2N)C3)C1 (single isomer, unassigned) [Example 11-25]",0.2 to 2 µM
10,"CN[C@H]1CCN(c2ccc3c(c2)CC[C@@H](NC(=O)c2sc4nc(C)cnc4c2N)C3)C1 (single isomer, unassigned) [Example 11-26]",> 2 µM
11,"CN[C@@H]1CCN(c2ccc3c(c2)CC[C@H](NC(=O)c2sc4nc(C)cnc4c2N)C3)C1 (single isomer, unassigned) [Example 11-27]",0.2 to 2 µM
12,"CN[C@@H]1CCN(c2ccc3c(c2)CC[C@@H](NC(=O)c2sc4nc(C)cnc4c2N)C3)C1 (single isomer, unassigned) [Example 11-28]",> 2 µM
13,"Cc1cnc2c(N)c(C(=O)N[C@H]3CCc4cc(N5C[C@@H]6C[C@H]5CN6)ccc4C3)sc2n1 (single isomer, unassigned) [Example 11-29]",0.2 to 2 µM
14,"Cc1cnc2c(N)c(C(=O)N[C@@H]3CCc4cc(N5C[C@@H]6C[C@H]5CN6)ccc4C3)sc2n1 (single isomer, unassigned) [Example 11-30]",0.2 to 2 µM
15,"Cc1cnc2c(N)c(C(=O)N[C@H]3CCc4cc(N5C[C@H]6C[C@@H]5CN6)ccc4C3)sc2n1 (single isomer, unassigned) [Example 11-31]",0.2 to 2 µM
16,"Cc1cnc2c(N)c(C(=O)N[C@@H]3CCc4cc(N5C[C@H]6C[C@@H]5CN6)ccc4C3)sc2n1 (single isomer, unassigned) [Example 11-32]",0.2 to 2 µM
17,"Cc1nc2sc(C(=O)N[C@H]3CCc4cc(N5CCNCC5)ccc4C3)c(N)c2s1 (single isomer, unassigned) [Example 11-33]",0.2 to 2 µM
18,"Cc1nc2sc(C(=O)N[C@@H]3CCc4cc(N5CCNCC5)ccc4C3)c(N)c2s1 (single isomer, unassigned) [Example 11-34]",> 2 µM
19,"Cc1cnc2c(N)c(C(=O)N[C@@H]3CCc4cc(N5CCNCC5)cc(F)c4C3)sc2n1 (single isomer, unassigned) [Example 11-37]",> 2 µM
20,"Cc1cnc2c(N)c(C(=O)N[C@H]3CCc4cc(N5CCNCC5)cc(F)c4C3)sc2n1 (single isomer, unassigned) [Example 11-38]",0.2 to 2 µM
21,"Cc1ccc2c(N)c(C(=O)N[C@H]3CCc4cc(N5CC6CNCC(C5)O6)cc(F)c4C3)sc2n1 (single isomer, unassigned) [Example 11-39]",> 2 µM
22,"Cc1ccc2c(N)c(C(=O)N[C@@H]3CCc4cc(N5CC6CNCC(C5)O6)cc(F)c4C3)sc2n1 (single isomer, unassigned) [Example 11-40]",0.05 to 0.2 µM
